Patent US20230015308A1, “SUBSTITUTED THIAZOLE AROMATIC RING-BASED COMPOUND AND PREPARATION METHOD THEREFOR, HERBICIDAL COMPOSITION AND USE THEREOF” (QINGDAO KINGAGROOT CHEMICAL COMPOUND CO., LTD., priority 2019, published 2023)

What was measured:
Test in all cases: Weeding effect in post-emergence stage (greenhouse pot test)
Type in all cases: in vivo
Conditions in all cases: 15 g a.i./ha, 3 weeks after application
Abutilon theophrasti = tested on: Abutilon theophrasti
Excerpt: (§1) The activity level criteria for plant damage (i.e., growth control rate) are as follows:
(§2) Level 5: growth control rate is above 85%;
(§3) Level 4: growth control rate is greater than or equal to 60% and less than 85%;
(§4) Level 3: growth control rate is greater than or equal to 40% and less than 60%;
(§5) Level 2: growth control rate is greater than or equal to 20% and less than 40%;
(§6) Level 1: growth control rate is greater than or equal to 5% and less than 20%;
(§7) Level 0: growth control rate is less than 5%.
(§8) The above growth control rates are fresh weight control rates.
(§9) Experiment on weeding effect in post-emergence stage:
(§10) Monocotyledonous and dicotyledonous weed seeds (Descurainia sophia, Capsella bursa-pastoris, Abutilon theophrasti, Galium aparine, Stellaria media, Lithospermum arvense, Rorippa indica, Alopecurus aequalis, Alopecurus japonicus, Beckmannia syzigachne, Sclerochloa dura, Conyza Canadensis, Phleum paniculatum, Veronica didyma Tenore, Eleusine indica, Bromus japonicus, Aegilops tauschii, Phalaris arundinacea, Amaranthus retroflexus, Chenopodium album, Commelina communis, Sonchus arvensis, Convolvulus arvensis, Cirsium setosum, Solanum nigrum, Acalypha australis, Digitaria sanguinalis, Echinochloa crusgalli, Setaria viridis, Setaria glauca, Leptochloa chinensis, Monochoria vaginalis, Sagittaria trifolia, Scirpus juncoides, Cyperus rotundus, Cyperus iria, Cyperus difformis, Fimbristylis, Portulaca oleracea, Xanthium sibiricum, Pharbitis nil) and major crop seeds (wheat, corn, rice, soybean, cotton, oilseed rape, millet, sorghum, potato, sesame, ricinus) were placed in plastic pots filled with soil, then covered with 0.5-2 cm of soil, allowed to grow in a good greenhouse environment. After 2 weeks of sowing, the test plants were treated in the 2-3 leaf stage. The tested compounds of the present invention were respectively dissolved in acetone, then added with Tween 80 and 1.5 liter/ha of emulsifiable concentrate of methyl oleate as synergist, diluted with a certain amount of water to obtain a solution with a certain concentration, and sprayed with a spray tower onto the plants. After the application, the plants were cultured for 3 weeks in the greenhouse, and then the experimental results of the weeding were counted. The doses of the used compounds were 500, 250, 125, 60, 15 g a.i./ha, and the averages were obtained by repeating for three times.

Alopecurus japonicus = tested on: Alopecurus japonicus
Excerpt: as §1, §2, §3, §4, §5, §6, §7, §8, §9, §10

Amaranthus retroflexus = tested on: Amaranthus retroflexus
Excerpt: as §1, §2, §3, §4, §5, §6, §7, §8, §9, §10

Beckmannia syzigachne = tested on: Beckmannia syzigachne
Excerpt: as §1, §2, §3, §4, §5, §6, §7, §8, §9, §10

Digitaria sanguinalis = tested on: Digitaria sanguinalis
Excerpt: as §1, §2, §3, §4, §5, §6, §7, §8, §9, §10

Echinochloa crusgalli = tested on: Echinochloa crusgalli
Excerpt: as §1, §2, §3, §4, §5, §6, §7, §8, §9, §10

Galium aparine = tested on: Galium aparine
Excerpt: as §1, §2, §3, §4, §5, §6, §7, §8, §9, §10

Setaria viridis = tested on: Setaria viridis
Excerpt: as §1, §2, §3, §4, §5, §6, §7, §8, §9, §10

Veronica didyma Tenore = tested on: Veronica didyma Tenore
Excerpt: as §1, §2, §3, §4, §5, §6, §7, §8, §9, §10

| Structure (SMILES) | Abutilon theophrasti, activity level (fresh weight growth control rate) (Abutilon theophrasti) | Alopecurus japonicus, activity level (fresh weight growth control rate) (Alopecurus japonicus) | Amaranthus retroflexus, activity level (fresh weight growth control rate) (Amaranthus retroflexus) | Beckmannia syzigachne, activity level (fresh weight growth control rate) (Beckmannia syzigachne) | Digitaria sanguinalis, activity level (fresh weight growth control rate) (Digitaria sanguinalis) | Echinochloa crusgalli, activity level (fresh weight growth control rate) (Echinochloa crusgalli) | Galium aparine, activity level (fresh weight growth control rate) (Galium aparine) | Setaria viridis, activity level (fresh weight growth control rate) (Setaria viridis) | Veronica didyma Tenore, activity level (fresh weight growth control rate) (Veronica didyma Tenore) |
| --- | --- | --- | --- | --- | --- | --- | --- | --- | --- |
| CCOC(=O)c1cnc(-c2cc(-n3c(=O)cc(C(F)(F)F)n(C)c3=O)c(F)cc2Cl)s1 [1-2] | 5 (Level 5: growth control rate is above 85%) | 4 (Level 4: growth control rate is greater than or equal to 60% and less than 85%) | 5 (Level 5: growth control rate is above 85%) | 4 (Level 4: growth control rate is greater than or equal to 60% and less than 85%) | 5 (Level 5: growth control rate is above 85%) | 5 (Level 5: growth control rate is above 85%) | 5 (Level 5: growth control rate is above 85%) | 5 (Level 5: growth control rate is above 85%) | 5 (Level 5: growth control rate is above 85%) |
| C=CCOC(=O)c1cnc(-c2cc(-n3c(=O)cc(C(F)(F)F)n(C)c3=O)c(F)cc2Cl)s1 [1-10] | 5 (Level 5: growth control rate is above 85%) | 3 (Level 3: growth control rate is greater than or equal to 40% and less than 60%) | 5 (Level 5: growth control rate is above 85%) | 3 (Level 3: growth control rate is greater than or equal to 40% and less than 60%) | 4 (Level 4: growth control rate is greater than or equal to 60% and less than 85%) | 5 (Level 5: growth control rate is above 85%) | 5 (Level 5: growth control rate is above 85%) | 5 (Level 5: growth control rate is above 85%) | 5 (Level 5: growth control rate is above 85%) |
| Cn1c(C(F)(F)F)cc(=O)n(-c2cc(-c3ncc(C(=O)OCc4ccccc4)s3)c(Cl)cc2F)c1=O [1-35] | 5 (Level 5: growth control rate is above 85%) | – | 5 (Level 5: growth control rate is above 85%) | – | 3 (Level 3: growth control rate is greater than or equal to 40% and less than 60%) | 4 (Level 4: growth control rate is greater than or equal to 60% and less than 85%) | 5 (Level 5: growth control rate is above 85%) | 5 (Level 5: growth control rate is above 85%) | 5 (Level 5: growth control rate is above 85%) |
| COC(=O)C(C)OC(=O)c1cnc(-c2cc(-n3c(=O)cc(C(F)(F)F)n(C)c3=O)c(F)cc2Cl)s1 (centres unmarked) [1-48] | 5 (Level 5: growth control rate is above 85%) | – | 5 (Level 5: growth control rate is above 85%) | – | 4 (Level 4: growth control rate is greater than or equal to 60% and less than 85%) | 5 (Level 5: growth control rate is above 85%) | 5 (Level 5: growth control rate is above 85%) | 5 (Level 5: growth control rate is above 85%) | 5 (Level 5: growth control rate is above 85%) |
| CC(C)=NOC(=O)c1cnc(-c2cc(-n3c(=O)cc(C(F)(F)F)n(C)c3=O)c(F)cc2Cl)s1 [1-55] | 5 (Level 5: growth control rate is above 85%) | – | 5 (Level 5: growth control rate is above 85%) | – | 5 (Level 5: growth control rate is above 85%) | 5 (Level 5: growth control rate is above 85%) | 5 (Level 5: growth control rate is above 85%) | 5 (Level 5: growth control rate is above 85%) | 5 (Level 5: growth control rate is above 85%) |
| CCOC(=O)c1csc(-c2cc(-n3c(=O)cc(C(F)(F)F)n(C)c3=O)c(F)cc2Cl)n1 [2-2] | 5 (Level 5: growth control rate is above 85%) | – | 5 (Level 5: growth control rate is above 85%) | – | 4 (Level 4: growth control rate is greater than or equal to 60% and less than 85%) | – | 5 (Level 5: growth control rate is above 85%) | – | 5 (Level 5: growth control rate is above 85%) |
| CCOC(=O)c1csc(-c2cc(-n3c(=O)n(C)c(=S)n(C)c3=O)c(F)cc2Cl)n1 [2-113] | – | – | 5 (Level 5: growth control rate is above 85%) | – | – | – | 5 (Level 5: growth control rate is above 85%) | – | 5 (Level 5: growth control rate is above 85%) |
| COC(=O)c1nc(-c2cc(-n3c(=O)cc(C(F)(F)F)n(C)c3=O)c(F)cc2Cl)cs1 [4-1] | – | – | 5 (Level 5: growth control rate is above 85%) | – | – | 4 (Level 4: growth control rate is greater than or equal to 60% and less than 85%) | – | – | 5 (Level 5: growth control rate is above 85%) |
| COC(=O)c1nc(-c2cc(-n3c(=O)n(C)c(=S)n(C)c3=O)c(F)cc2Cl)cs1 [4-158] | – | – | 5 (Level 5: growth control rate is above 85%) | – | – | – | 5 (Level 5: growth control rate is above 85%) | – | 5 (Level 5: growth control rate is above 85%) |
